Several values for one entry are separate records, joined by “and”; a condition that tells them apart may be missing. Equal entries are not always repeated. Structures can show the parent of a compound that is named as a salt. Where two headings read alike, the source gives them in different places.
What was measured:
human erythrocytes = test: Hemolytic activity against human erythrocytes; type: cell-based; conditions: for ED50, Erythrocytes (hemolytic activity): 1 h at 37 °C
Procedure: A total of 450 g of human blood (B(III) Rh+) was used to obtain erythrocytes by centrifuging three times for 5 min with phosphate-buffered saline (PBS) (pH 7.4) at 4 °C on a centrifuge LABOFUGE 400R (Heraeus, Hanau, Germany). Ice-cold PBS (pH 7.4) was used for resuspension of erythrocyte residue to a final optical density of 1.5 at 700 nm. Then, 20 µL of tested compound solutions or control (cucumarioside A0-1 [15]) were added to 180 µL of erythrocyte suspension in V-bottom 96-well plates and incubated for 1 h at 37 °C. After centrifugation (900 g, 10 min, laboratory centrifuge LMC-3000 (Biosan, Riga, Latvia)), 100 µL of supernatant was transferred into new flat plates. The values of erythrocyte lysis were measured on microplate photometer Multiskan FC (Thermo Fisher Scientific, Waltham, MA, USA) at λ = 570 nm as hemoglobin concentration in supernatant. […] All the experiments were carried out in triple repetitions, p < 0.05.

[1] = test system: MDA-MB-231 triple-negative breast cancer cells; test: cells; type: cell-based, human; conditions: for Selectivity Index (SI), MDA-MB-231: ratio of IC50 for healthy (MCF-10A) and MDA-MB-231 cells
[2] = test system: MCF-7 human breast cancer cells; test: cells; type: cell-based;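 further: IC50 values, including those behind the selectivity ratio, derive from formazan absorbance at 570 nm, tested in triplicate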
[3] = test system: T-47D human breast cancer cells; test: cells; type: cell-based; conditions: for Selectivity Index (SI), T-47D: ratio of IC50 for healthy (MCF-10A) and T-47D cells;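 on all read-outs here: cell viability read as absorbance of formazan dye at 570 nm, each experiment run in triplicate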
in vitro = type: cell-based, human; conditions: human
[4] = test system: MCF-10A non-tumor mammary epithelial cell line; test: in vitro; type: cell-based, human
[5] = Homo sapiens, MDA-MB-231, read-out: Cytotoxicity, IC50, MDA-MB-231
[6] = Homo sapiens, MCF7, read-out: Cytotoxicity, IC50, MCF-7
[7] = Homo sapiens, T47D, read-out: Cytotoxicity, IC50, T-47D
[8] = MTT assay, MDA-MB-231, read-out: Cytotoxicity, IC50, MDA-MB-231
[9] = MTT assay, MCF-7, read-out: Cytotoxicity, IC50, MCF-7
[10] = MTT assay, T-47D, read-out: Cytotoxicity, IC50, T-47D
[11] = MTT assay, MCF-10A, read-out: Cytotoxicity, IC50, MCF-10A

Row | Compound | Hemolytic (membranolytic) activity, in words (human erythrocytes) | ED50, Erythrocytes (hemolytic activity) (human erythrocytes) | Selectivity Index (SI), MDA-MB-231 [1] | Selectivity Index (SI), T-47D [3] | IC50 [1] [µM] | IC50 [2] [µM] | IC50 [3] [µM] | IC50 [4] [µM] | also measured
1 | CO[C@@H]1[C@@H](O)[C@H](O[C@@H]2[C@@H](O)[C@H](O[C@H]3[C@H](O)[C@@H](O)[C@H](O[C@H]4[C@H](O[C@H]5CC[C@]6(C)C7=CCC89C(=O)O[C@@](C)([C@@H](CCC(C)C)OC(C)=O)[C@H]8[C@@H](OC(C)=O)C[C@@]9(C)[C@@H]7CC[C@H]6C5(C)C)OC[C@@H](O[C@@H]5OC[C@@H](O)[C@H](O)[C@H]5O)[C@@H]4O)O[C@@H]3C)OC[C@H]2O)O[C@H](COS(=O)(=O)O)[C@H]1O (stereo partly drawn) [Cladoloside S1 (2), 3β-O-{6-O-sodium sulfate-3-O-methyl-β-D-glucopyranosyl-(1→3)-β-D-xylopyranosyl-(1→4)-β-D-quinovopyranosyl-(1→2)-[(1→4)-β-D-xylopyranosyl]-β-D-xylopyranosyl}-16S,22R-diacetoxyholost-9-en] | moderately active | 4.78 ± 0.30 µM | – | – | – | – | – | – | IC50 [1, 5]: > 20 µM; IC50 [2, 6]: > 20 µM; IC50 [3, 7]: > 20 µM; IC50 (in vitro): > 20 µM
2 | C=C(C)CC[C@@H](OC(C)=O)[C@]1(C)OC(=O)C23CC=C4[C@@H](CC[C@H]5C(C)(C)[C@@H](O[C@@H]6OC[C@@H](O[C@@H]7OC[C@@H](O)[C@H](O)[C@H]7O)[C@H](O)[C@H]6O[C@@H]6O[C@H](C)[C@@H](O[C@@H]7OC[C@@H](O)[C@H](O[C@@H]8O[C@H](COS(=O)(=O)O)[C@@H](O)[C@H](OC)[C@H]8O)[C@H]7O)[C@H](O)[C@H]6O)CC[C@]45C)[C@]2(C)C[C@H](OC(C)=O)[C@@H]31 (stereo partly drawn) [Cladoloside S (1), 3β-O-{6-O-sodium sulfate-3-O-methyl-β-D-glucopyranosyl-(1→3)-β-D-xylopyranosyl-(1→4)-β-D-quinovopyranosyl-(1→2)-[(1→4)-β-D-xylopyranosyl]-β-D-xylopyranosyl}-16S,22R-diacetoxyholosta-9,25-diene] | moderately active | 3.40 ± 0.25 µM | >1.51 | >1.35 | – | – | – | – | IC50 [1, 5]: 13.2 ± 1.08 µM; IC50 [2, 6]: > 20 µM; IC50 [3, 7]: 14.8 ± 0.71 µM; IC50 (in vitro): > 20 µM
3 | CO[C@@H]1[C@@H](O)[C@H](O[C@@H]2[C@@H](O)[C@H](O[C@@H]3CO[C@@H](O[C@H]4CC[C@]5(C)C6=CCC78C(=O)O[C@@](C)([C@@H](CCC(C)C)OC(C)=O)[C@H]7[C@@H](OC(C)=O)C[C@@]8(C)[C@@H]6CC[C@H]5C4(C)C)[C@H](O[C@@H]4O[C@H](C)[C@@H](O[C@@H]5OC[C@@H](O)[C@H](O[C@@H]6O[C@H](CO)[C@@H](O)[C@H](OS(=O)(=O)O)[C@H]6O)[C@H]5O)[C@H](O)[C@H]4O)[C@H]3O)O[C@H](CO)[C@H]2O)O[C@H](CO)[C@H]1O (stereo partly drawn) [Cladoloside T1 (4), 3β-O-{3-O-sodium sulfate-β-D-glucopyranosyl-(1→3)-β-D-xylopyranosyl-(1→4)-β-D-quinovopyranosyl-(1→2)-[3-O-methyl-β-D-glucopyranosyl-(1→3)-β-D-glucopyranosyl-(1→4)]-β-D-xylopyranosyl}-16S,22R-diacetoxyholost-9-en] | – | 0.12 µM and 0.12 ± 0.02 µM | – | – | 2.94 ± 0.21 | 7.78 ± 0.62 | 7.41 ± 0.69 | 8.41 ± 0.4 | –
4 | C=C(C)CC[C@@H](OC(C)=O)[C@]1(C)OC(=O)C23CC=C4[C@@H](CC[C@H]5C(C)(C)[C@@H](O[C@@H]6OC[C@@H](O[C@@H]7O[C@H](CO)[C@@H](O)[C@H](O[C@@H]8O[C@H](CO)[C@@H](O)[C@H](OC)[C@H]8O)[C@H]7O)[C@H](O)[C@H]6O[C@@H]6O[C@H](C)[C@@H](O[C@@H]7OC[C@@H](O)[C@H](O[C@@H]8O[C@H](CO)[C@@H](O)[C@H](OS(=O)(=O)O)[C@H]8O)[C@H]7O)[C@H](O)[C@H]6O)CC[C@]45C)[C@]2(C)C[C@H](OC(C)=O)[C@@H]31 (stereo partly drawn) [Cladoloside T (3), 3β-O-{3-O-sodium sulfate-β-D-glucopyranosyl-(1→3)-β-D-xylopyranosyl-(1→4)-β-D-quinovopyranosyl-(1→2)-[3-O-methyl-β-D-glucopyranosyl-(1→3)-β-D-glucopyranosyl-(1→4)]-β-D-xylopyranosyl}-16S,22R-diacetoxyholosta-9,25-diene] | – | 0.39 µM and 0.39 ± 0.03 µM | – | – | 3.41 ± 0.33 | 8.99 ± 0.61 | 8.21 ± 0.72 | 8.23 ± 0.52 | –
5 | C=C(C)CC[C@@H](OC(C)=O)[C@]1(C)OC(=O)C23CC=C4[C@@H](CC[C@H]5C(C)(C)[C@@H](O[C@@H]6OC[C@@H](O[C@@H]7O[C@H](CO)[C@@H](O)[C@H](O)[C@H]7O)[C@H](O)[C@H]6O[C@@H]6O[C@H](C)[C@@H](O[C@@H]7OC[C@@H](O)[C@H](O[C@@H]8O[C@H](COS(=O)(=O)[O-])[C@@H](O)[C@H](OC)[C@H]8O)[C@H]7O)[C@H](O)[C@H]6O)CC[C@]45C)[C@]2(C)C[C@H](OC(C)=O)[C@@H]31.[Na+] (some centres unmarked) [I2 (29), cladoloside I2] | – | 4.24 ± 0.31 µM | – | – | > 20 | > 20 | > 20 | > 20 | ED50, Erythrocytes (hemolytic activity) (human erythrocytes; listed as cladoloside I2 (29)): 4.24 µM
6 | cladoloside C [Cladoloside C (13)] | high activity | – | >1.54 | >1.61 | – | – | – | – | ED50, Erythrocytes (hemolytic activity) (human erythrocytes; listed as C (13)): 0.44 ± 0.05 µM; ED50, Erythrocytes (hemolytic activity) (human erythrocytes; listed as cladoloside C (13)): 0.44 µM; IC50 [1, 8]: 13 ± 0.8 µM; IC50 [2, 9]: > 20 µM; IC50 [3, 10]: 12.4 ± 0.66 µM; IC50 [4, 11]: > 20 µM
7 | cucumarioside A0-1 [reference compound] | – | 1.63 ± 0.21 µM | 2.13 | 0.89 | – | – | – | – | IC50 [1, 8]: 3.53 ± 0.54 µM; IC50 [2, 9]: 11.3 ± 1 µM; Selectivity Index (SI), MCF-7 ([2]; ratio of IC50 for healthy (MCF-10A) and MCF-7 cells): 0.66; IC50 [3, 10]: 8.46 ± 0.53 µM; IC50 [4, 11]: 7.51 ± 0.63 µM
